According to patent publication US10487093B2, “Heterocyclic compounds, in particular 2-oxo-4,4,5,5,6,6,7,7-octahydrobenzoxazole derivatives, and their use as antibacterial compounds” (priority 2016, dated 2019):
≈ marks a conversion by molar mass, not a printed value. Where two headings read alike, the source gives them in different places.

How the values were obtained:
Type in all cases: cell-based
[1] = system: Streptococcus pneumoniae ATCC 49619; test: MIC, broth microdilution (CLSI) versus planktonic bacteria; conditions: ATCC49619; Streptococcus pneumoniae ATCC 49619; 16-20 h; mode of three independent experiments; read-out: MIC, Sp ATCC 49619
[2] = system: strains of Parvimonas micra; test: MIC against anaerobes, agar dilution (CLSI), clinical isolates
[3] = system: strains of Clostridium perfringens; test: microbe, parasite or virus in culture
[4] = system: Bacteroides fragilis ATCC 25285; test: MIC against anaerobes, agar dilution (CLSI), reference strain; conditions: ATCC25285, agar dilution, Brucella blood agar, 35° C., 48 h, anaerobic conditions, read-out: MIC, B. fragilis ATCC 25285
[5] = system: strains of Finegoldia magna; test: MIC against anaerobes, agar dilution (CLSI), clinical isolates; conditions: Finegoldia magna, read-out: MIC
[6] = system: Staphylococcus aureus ATCC 29213; test: MIC, broth microdilution (CLSI) versus planktonic bacteria; conditions: ATCC29213; Staphylococcus aureus ATCC 29213; 16-20 h; mode of three independent experiments; read-out: MIC, Sa ATCC 29213
[7] = system: Bacteroides thetaiotaomicron ATCC 29741; test: microbe, parasite or virus in culture; conditions: ATCC29741, agar dilution, Brucella blood agar, 35° C., 48 h, anaerobic conditions, read-out: MIC, B. thetaiotaomicron ATCC
[8] = system: strains of Bacteroides fragilis; test: MIC against anaerobes, agar dilution (CLSI), clinical isolates
[9] = system: strains of Prevotella melaninogenica; test: as above
[10] = system: strains of Propionibacterium acnes; test: as above; conditions: Cutibacterium acnes
[11] = system: Clostridium difficile ATCC 700057; test: MIC against anaerobes, agar dilution (CLSI), reference strain; conditions: Clostridioides difficile, ATCC700057, 48 h, read-out: MIC, C. difficile ATCC 700057
[12] = system: strains of Peptostreptococcus anaerobius; test: MIC against anaerobes, agar dilution (CLSI), clinical isolates
[13] = system: strains of Bacteroides thetaiotaomicron; test: microbe, parasite or virus in culture
[14] = system: strains of Peptoniphilus harei; test: MIC against anaerobes, agar dilution (CLSI), clinical isolates; conditions: Peptoniphilus harei, read-out: MIC
[15] = system: strains of Prevotella bivia; test: as above

## Cc1ccc2ncc(=O)n(CCN[C@H]3CC[C@H]4[C@@H](C3)OC(=O)N4c3ccc4c(n3)NC(=O)CO4)c2c1 [Compound 27, 1-(2-{[(3aS,6S,7aR)-2-oxo-3-{3-oxo-2H,3H,4H-pyrido[3,2-b][1,4]oxazin-6-yl}-octahydro-1,3-benzoxazol-6-yl]amino}ethyl)-7-methyl-1,2-dihydroquinoxalin-2-one]
[1]
  MIC: < 1 µg/mL
[2]; Parvimonas micra strain 1
  MIC: > 64 µg/mL
[2]; Parvimonas micra strain 2
  MIC: 16 to 64 µg/mL (≈ 32.6 to 130 µM)
[2]; Parvimonas micra strain 3
  MIC: > 64 µg/mL
[2]; Parvimonas micra strain 4
  MIC: > 64 µg/mL
[2]; Parvimonas micra strain 5
  MIC: > 64 µg/mL
[2]; Parvimonas micra strain 6
  MIC: 1 to 4 µg/mL (≈ 2.04 to 8.15 µM)
[2]; Parvimonas micra strain 7
  MIC: 16 to 64 µg/mL (≈ 32.6 to 130 µM)
[2]; Parvimonas micra strain 8
  MIC: 16 to 64 µg/mL (≈ 32.6 to 130 µM)
[2]; Parvimonas micra strain 9
  MIC: 16 to 64 µg/mL (≈ 32.6 to 130 µM)
[2]; Parvimonas micra strain 10
  MIC: 16 to 64 µg/mL (≈ 32.6 to 130 µM)
[2]; Parvimonas micra strain 11
  MIC: 16 to 64 µg/mL (≈ 32.6 to 130 µM)
[2]; Parvimonas micra strain 12
  MIC: 16 to 64 µg/mL (≈ 32.6 to 130 µM)
[3]; Clostridium perfringens strain 1
  MIC: < 1 µg/mL
[3]; Clostridium perfringens strain 2
  MIC: < 1 µg/mL
[3]; Clostridium perfringens strain 3
  MIC: < 1 µg/mL
[3]; Clostridium perfringens strain 4
  MIC: < 1 µg/mL
[3]; Clostridium perfringens strain 5
  MIC: < 1 µg/mL
[3]; Clostridium perfringens strain 6
  MIC: < 1 µg/mL
[3]; Clostridium perfringens strain 7
  MIC: < 1 µg/mL
[3]; Clostridium perfringens strain 8
  MIC: 1 to 4 µg/mL (≈ 2.04 to 8.15 µM)
[3]; Clostridium perfringens strain 9
  MIC: < 1 µg/mL
[3]; Clostridium perfringens strain 10
  MIC: < 1 µg/mL
[3]; Clostridium perfringens strain 11
  MIC: < 1 µg/mL
[4]
  MIC: 4 to 16 µg/mL (≈ 8.15 to 32.6 µM)
[5]; Finegoldia magna strain 1
  MIC: 1 to 4 µg/mL (≈ 2.04 to 8.15 µM)
[5]; Finegoldia magna strain 2
  MIC: 16 to 64 µg/mL (≈ 32.6 to 130 µM)
[5]; Finegoldia magna strain 3
  MIC: 1 to 4 µg/mL (≈ 2.04 to 8.15 µM)
[5]; Finegoldia magna strain 4
  MIC: 16 to 64 µg/mL (≈ 32.6 to 130 µM)
[5]; Finegoldia magna strain 5
  MIC: 16 to 64 µg/mL (≈ 32.6 to 130 µM)
[5]; Finegoldia magna strain 6
  MIC: 16 to 64 µg/mL (≈ 32.6 to 130 µM)
[5]; Finegoldia magna strain 7
  MIC: > 64 µg/mL
[5]; Finegoldia magna strain 8
  MIC: 1 to 4 µg/mL (≈ 2.04 to 8.15 µM)
[5]; Finegoldia magna strain 9
  MIC: > 64 µg/mL
[5]; Finegoldia magna strain 10
  MIC: 4 to 16 µg/mL (≈ 8.15 to 32.6 µM)
[5]; Finegoldia magna strain 11
  MIC: 16 to 64 µg/mL (≈ 32.6 to 130 µM)
[5]; Finegoldia magna strain 12
  MIC: 16 to 64 µg/mL (≈ 32.6 to 130 µM)
[6]
  MIC: < 1 µg/mL
[7]
  MIC: 1 to 4 µg/mL (≈ 2.04 to 8.15 µM)
[8]; Bacteroides fragilis strain 1
  MIC: 16 to 64 µg/mL (≈ 32.6 to 130 µM)
[8]; Bacteroides fragilis strain 2
  MIC: 1 to 4 µg/mL (≈ 2.04 to 8.15 µM)
[8]; Bacteroides fragilis strain 3
  MIC: 1 to 4 µg/mL (≈ 2.04 to 8.15 µM)
[8]; Bacteroides fragilis strain 4
  MIC: 1 to 4 µg/mL (≈ 2.04 to 8.15 µM)
[8]; Bacteroides fragilis strain 5
  MIC: 1 to 4 µg/mL (≈ 2.04 to 8.15 µM)
[8]; Bacteroides fragilis strain 6
  MIC: 1 to 4 µg/mL (≈ 2.04 to 8.15 µM)
[8]; Bacteroides fragilis strain 7
  MIC: 4 to 16 µg/mL (≈ 8.15 to 32.6 µM)
[8]; Bacteroides fragilis strain 8
  MIC: 1 to 4 µg/mL (≈ 2.04 to 8.15 µM)
[8]; Bacteroides fragilis strain 9
  MIC: 1 to 4 µg/mL (≈ 2.04 to 8.15 µM)
[8]; Bacteroides fragilis strain 10
  MIC: 1 to 4 µg/mL (≈ 2.04 to 8.15 µM)
[8]; Bacteroides fragilis strain 11
  MIC: 1 to 4 µg/mL (≈ 2.04 to 8.15 µM)
[8]; Bacteroides fragilis strain 12
  MIC: 1 to 4 µg/mL (≈ 2.04 to 8.15 µM)
[9]; Prevotella melaninogenica strain 1
  MIC: 1 to 4 µg/mL (≈ 2.04 to 8.15 µM)
[9]; Prevotella melaninogenica strain 2
  MIC: < 1 µg/mL
[9]; Prevotella melaninogenica strain 3
  MIC: < 1 µg/mL
[9]; Prevotella melaninogenica strain 4
  MIC: < 1 µg/mL
[9]; Prevotella melaninogenica strain 5
  MIC: < 1 µg/mL
[9]; Prevotella melaninogenica strain 6
  MIC: < 1 µg/mL
[9]; Prevotella melaninogenica strain 7
  MIC: < 1 µg/mL
[9]; Prevotella melaninogenica strain 8
  MIC: < 1 µg/mL
[9]; Prevotella melaninogenica strain 9
  MIC: < 1 µg/mL
[9]; Prevotella melaninogenica strain 10
  MIC: 1 to 4 µg/mL (≈ 2.04 to 8.15 µM)
[9]; Prevotella melaninogenica strain 11
  MIC: < 1 µg/mL
[10]; Propionibacterium acnes strain 1
  MIC: 1 to 4 µg/mL (≈ 2.04 to 8.15 µM)
[10]; Propionibacterium acnes strain 2
  MIC: < 1 µg/mL
[10]; Propionibacterium acnes strain 3
  MIC: < 1 µg/mL
[10]; Propionibacterium acnes strain 4
  MIC: < 1 µg/mL
[10]; Propionibacterium acnes strain 5
  MIC: 1 to 4 µg/mL (≈ 2.04 to 8.15 µM)
[10]; Propionibacterium acnes strain 6
  MIC: 1 to 4 µg/mL (≈ 2.04 to 8.15 µM)
[10]; Propionibacterium acnes strain 7
  MIC: 1 to 4 µg/mL (≈ 2.04 to 8.15 µM)
[10]; Propionibacterium acnes strain 8
  MIC: 1 to 4 µg/mL (≈ 2.04 to 8.15 µM)
[10]; Propionibacterium acnes strain 9
  MIC: 1 to 4 µg/mL (≈ 2.04 to 8.15 µM)
[10]; Propionibacterium acnes strain 10
  MIC: 1 to 4 µg/mL (≈ 2.04 to 8.15 µM)
[10]; Propionibacterium acnes strain 11
  MIC: < 1 µg/mL
[10]; Propionibacterium acnes strain 12
  MIC: 1 to 4 µg/mL (≈ 2.04 to 8.15 µM)
[11]
  MIC: 1 to 4 µg/mL (≈ 2.04 to 8.15 µM)
[12]; Peptostreptococcus anaerobius strain 1
  MIC: < 1 µg/mL
[12]; Peptostreptococcus anaerobius strain 2
  MIC: < 1 µg/mL
[12]; Peptostreptococcus anaerobius strain 3
  MIC: < 1 µg/mL
[12]; Peptostreptococcus anaerobius strain 4
  MIC: 4 to 16 µg/mL (≈ 8.15 to 32.6 µM)
[12]; Peptostreptococcus anaerobius strain 5
  MIC: < 1 µg/mL
[12]; Peptostreptococcus anaerobius strain 6
  MIC: < 1 µg/mL
[12]; Peptostreptococcus anaerobius strain 7
  MIC: < 1 µg/mL
[12]; Peptostreptococcus anaerobius strain 8
  MIC: < 1 µg/mL
[12]; Peptostreptococcus anaerobius strain 9
  MIC: < 1 µg/mL
[12]; Peptostreptococcus anaerobius strain 10
  MIC: < 1 µg/mL
[13]; Bacteroides thetaiotaomicron strain 1, read-out: MIC
  MIC: 4 to 16 µg/mL (≈ 8.15 to 32.6 µM)
[13]; Bacteroides thetaiotaomicron strain 2, read-out: MIC
  MIC: 1 to 4 µg/mL (≈ 2.04 to 8.15 µM)
[13]; Bacteroides thetaiotaomicron strain 3, read-out: MIC
  MIC: 4 to 16 µg/mL (≈ 8.15 to 32.6 µM)
[13]; Bacteroides thetaiotaomicron strain 4, read-out: MIC
  MIC: 4 to 16 µg/mL (≈ 8.15 to 32.6 µM)
[13]; Bacteroides thetaiotaomicron strain 5, read-out: MIC
  MIC: 1 to 4 µg/mL (≈ 2.04 to 8.15 µM)
[13]; Bacteroides thetaiotaomicron strain 6, read-out: MIC
  MIC: 4 to 16 µg/mL (≈ 8.15 to 32.6 µM)
[13]; Bacteroides thetaiotaomicron strain 7, read-out: MIC
  MIC: 4 to 16 µg/mL (≈ 8.15 to 32.6 µM)
[13]; Bacteroides thetaiotaomicron strain 8, read-out: MIC
  MIC: 1 to 4 µg/mL (≈ 2.04 to 8.15 µM)
[13]; Bacteroides thetaiotaomicron strain 9, read-out: MIC
  MIC: < 1 µg/mL
[13]; Bacteroides thetaiotaomicron strain 10, read-out: MIC
  MIC: 1 to 4 µg/mL (≈ 2.04 to 8.15 µM)
[13]; Bacteroides thetaiotaomicron strain 11, read-out: MIC
  MIC: 4 to 16 µg/mL (≈ 8.15 to 32.6 µM)
[14]; Peptoniphilus harei strain 1
  MIC: < 1 µg/mL
[14]; Peptoniphilus harei strain 2
  MIC: < 1 µg/mL
[14]; Peptoniphilus harei strain 3
  MIC: < 1 µg/mL
[14]; Peptoniphilus harei strain 4
  MIC: < 1 µg/mL
[14]; Peptoniphilus harei strain 5
  MIC: < 1 µg/mL
[14]; Peptoniphilus harei strain 6
  MIC: < 1 µg/mL
[14]; Peptoniphilus harei strain 7
  MIC: < 1 µg/mL
[14]; Peptoniphilus harei strain 8
  MIC: < 1 µg/mL
[14]; Peptoniphilus harei strain 9
  MIC: < 1 µg/mL
[14]; Peptoniphilus harei strain 10
  MIC: < 1 µg/mL
[14]; Peptoniphilus harei strain 11
  MIC: < 1 µg/mL
[14]; Peptoniphilus harei strain 12
  MIC: < 1 µg/mL
[15]; Prevotella bivia strain 1
  MIC: < 1 µg/mL
[15]; Prevotella bivia strain 2
  MIC: < 1 µg/mL
[15]; Prevotella bivia strain 3
  MIC: 1 to 4 µg/mL (≈ 2.04 to 8.15 µM)
[15]; Prevotella bivia strain 4
  MIC: 1 to 4 µg/mL (≈ 2.04 to 8.15 µM)
[15]; Prevotella bivia strain 5
  MIC: < 1 µg/mL
[15]; Prevotella bivia strain 6
  MIC: 1 to 4 µg/mL (≈ 2.04 to 8.15 µM)
[15]; Prevotella bivia strain 7
  MIC: 1 to 4 µg/mL (≈ 2.04 to 8.15 µM)
[15]; Prevotella bivia strain 8
  MIC: < 1 µg/mL
[15]; Prevotella bivia strain 9
  MIC: < 1 µg/mL
[15]; Prevotella bivia strain 10
  MIC: < 1 µg/mL
